Usually Ki stands for the dissociation constant of the complex between target and ligand, obtained from inhibition or displacement.

The source of these data is patent US8796289B2 (AbbVie Inc., priority 2011, dated 2014).

GST-tagged-Wee1 kinase, sequence (P30291 whole entry): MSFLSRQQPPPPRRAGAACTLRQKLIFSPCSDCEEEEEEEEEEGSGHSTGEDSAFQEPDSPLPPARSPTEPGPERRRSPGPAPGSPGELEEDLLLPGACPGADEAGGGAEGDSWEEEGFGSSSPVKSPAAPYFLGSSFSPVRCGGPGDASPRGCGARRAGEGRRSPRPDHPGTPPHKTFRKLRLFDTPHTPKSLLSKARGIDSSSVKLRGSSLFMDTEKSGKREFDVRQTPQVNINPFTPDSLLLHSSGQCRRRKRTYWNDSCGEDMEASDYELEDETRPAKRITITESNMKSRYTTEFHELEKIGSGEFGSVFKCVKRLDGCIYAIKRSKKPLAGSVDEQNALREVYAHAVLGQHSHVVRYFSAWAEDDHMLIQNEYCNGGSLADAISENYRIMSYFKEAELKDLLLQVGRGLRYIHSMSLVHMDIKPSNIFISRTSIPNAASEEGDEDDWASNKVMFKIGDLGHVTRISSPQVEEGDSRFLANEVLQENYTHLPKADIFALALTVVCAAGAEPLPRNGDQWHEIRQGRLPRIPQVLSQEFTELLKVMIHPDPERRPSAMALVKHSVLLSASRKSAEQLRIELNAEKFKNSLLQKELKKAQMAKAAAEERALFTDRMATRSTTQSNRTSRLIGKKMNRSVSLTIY

This assay concerns the target GST-tagged-Wee1 kinase (Homo sapiens, UniProt P30291). The assay can be described thus: Wee1 time-resolved fluorescence equilibrium binding assay (displacement of Oregon Green-labeled ATP-competitive kinase probe). The method, then:
Wee1 kinase was assayed using a time-resolved fluorescence equilibrium binding assay monitoring displacement of a rapidly reversible Oregon Green-labeled ATP-competitive kinase probe (N-(2-(2-(2-(4-(4-(5-chloro-4-(2-(1-hydroxycyclobutyl)thiazol-5-yl)-1H-pyrrolo[2,3-b]pyridin-2-yl)phenyl)piperazin-1-yl)ethoxy)ethoxy)ethyl)-2′,7′-difluoro-3′,6′-dihydroxy-3-oxo-3H-spiro[isobenzofuran-1,9′-xanthene]-5-carboxamide) by competitive Wee1 inhibitors.
Turning to `CN1CCN(c2ccc(Nc3ncc4c(=O)n(-c5ccccc5Cl)nc(-c5cccnc5)c4n3)cc2)CC1` [Example 98, 6-(2-chlorophenyl)-2-{[4-(4-methylpiperazin-1-yl)phenyl]amino}-8-(pyridin-3-yl)pyrimido[4,5-d]pyridazin-5(6H)-one], the Ki was 0.5 nM. Compound `CN1CCN(c2ccc(Nc3ncc4c(=O)n(-c5c(Cl)cccc5Cl)nc(-c5cccnc5)c4n3)cc2)CC1` [Example 99, 6-(2,6-dichlorophenyl)-2-{[4-(4-methylpiperazin-1-yl)phenyl]amino}-8-(pyridin-3-yl)pyrimido[4,5-d]pyridazin-5(6H)-one] had a Ki of 0.09 nM. To `CN1CCN(c2ccc(Nc3ncc4c(=O)n(-c5ccccc5)nc(-c5cccnc5)c4n3)cc2)CC1` [Example 100, 2-{[4-(4-methylpiperazin-1-yl)phenyl]amino}-6-phenyl-8-(pyridin-3-yl)pyrimido[4,5-d]pyridazin-5(6H)-one] belongs 14 nM; to `CN1Cc2cc(Nc3ncc4c(=O)n(-c5c(Cl)cccc5Cl)nc(-c5cccnc5)c4n3)ccc2C2(CC2)C1` [Example 101, 6-(2,6-dichlorophenyl)-2-[(2′-methyl-2′,3′-dihydro-1′H-spiro[cyclopropane-1,4′-isoquinolin]-7′-yl)amino]-8-(pyridin-3-yl)pyrimido[4,5-d]pyridazin-5(6H)-one], 0.02 nM. In the case of `CN1CCN(c2ccc(Nc3ncc4c(=O)n(-c5ccccc5)nc(-c5ccccn5)c4n3)cc2)CC1` [Example 102, 2-{[4-(4-methylpiperazin-1-yl)phenyl]amino}-6-phenyl-8-(pyridin-2-yl)pyrimido[4,5-d]pyridazin-5(6H)-one], the Ki is 6 nM.

Compound `CN1CCN(c2ccc(Nc3ncc4c(=O)n(-c5c(Cl)cccc5Cl)nc(-c5ccccn5)c4n3)cc2)CC1` [Example 103, 6-(2,6-dichlorophenyl)-2-{[4-(4-methylpiperazin-1-yl)phenyl]amino}-8-(pyridin-2-yl)pyrimido[4,5-d]pyridazin-5(6H)-one] yielded a Ki of 0.2 nM.

`CN1Cc2cc(Nc3ncc4c(=O)n(-c5c(Cl)cccc5Cl)nc(-c5ccccn5)c4n3)ccc2C2(CC2)C1` [Example 104, 6-(2,6-dichlorophenyl)-2-[(2′-methyl-2′,3′-dihydro-1′H-spiro[cyclopropane-1,4′-isoquinolin]-7′-yl)amino]-8-(pyridin-2-yl)pyrimido[4,5-d]pyridazin-5(6H)-one] displayed a Ki of 0.6 nM. Consider `CN1CCN(c2ccc(Nc3ncc4c(=O)n(-c5c(Cl)cccc5Cl)nc(C5CCCNC5)c4n3)cc2)CC1` (stereo not drawn) [Example 105, 6-(2,6-dichlorophenyl)-2-{[4-(4-methylpiperazin-1-yl)phenyl]amino}-8-(piperidin-3-yl)pyrimido[4,5-d]pyridazin-5(6H)-one], for which the affinity, expressed as Ki, was 4 nM.

The compound `Cc1ccccc1-n1nc(-c2ccco2)c2nc(Nc3ccc(CN(C)C)cc3)ncc2c1=O` [Example 106, 2-({4-[(dimethylamino)methyl]phenyl}amino)-8-(2-furyl)-6-(2-methylphenyl)pyrimido[4,5-d]pyridazin-5(6H)-one] yielded an inhibitory constant (Ki) of 5 nM. With `Cc1ccccc1-n1nc(-c2ccco2)c2nc(Nc3ccc(N4CCN(C(C)C)CC4)cc3)ncc2c1=O` [Example 107, 8-(2-furyl)-2-{[4-(4-isopropylpiperazin-1-yl)phenyl]amino}-6-(2-methylphenyl)pyrimido[4,5-d]pyridazin-5(6H)-one], the Ki was found to be 1 nM. To `Cc1ccccc1-n1nc(-c2ccco2)c2nc(Nc3ccc(S(=O)(=O)N4CCOCC4)cc3)ncc2c1=O` [Example 108, 8-(2-furyl)-6-(2-methylphenyl)-2-{[4-(morpholin-4-ylsulfonyl)phenyl]amino}pyrimido[4,5-d]pyridazin-5(6H)-one] belongs 150 nM; to `Cc1ccccc1-n1nc(-c2ccccc2)c2nc(Nc3ccc(S(=O)(=O)N4CCOCC4)cc3)ncc2c1=O` [Example 109, 6-(2-methylphenyl)-2-{[4-(morpholin-4-ylsulfonyl)phenyl]amino}-8-phenylpyrimido[4,5-d]pyridazin-5(6H)-one], more than 3140 nM. To `C=CCn1nc(-c2ccccc2)c2nc(Nc3ccc(S(=O)(=O)N4CCOCC4)cc3)ncc2c1=O` [Example 110, 6-allyl-2-{[4-(morpholin-4-ylsulfonyl)phenyl]amino}-8-phenylpyrimido[4,5-d]pyridazin-5(6H)-one] belongs more than 3140 nM.

For `Cc1ccccc1-n1nc(-c2ccccc2)c2nc(Nc3ccc(CN(C)C)cc3)ncc2c1=O` [Example 111, 2-({4-[(dimethylamino)methyl]phenyl}amino)-6-(2-methylphenyl)-8-phenylpyrimido[4,5-d]pyridazin-5(6H)-one], the Ki stood at 2.5 nM. For `C=CCn1nc(-c2ccco2)c2nc(Nc3ccc(N4CCN(C(C)C)CC4)cc3)ncc2c1=O` [Example 112, 6-allyl-8-(2-furyl)-2-{[4-(4-isopropylpiperazin-1-yl)phenyl]amino}pyrimido[4,5-d]pyridazin-5(6H)-one], the Ki came to 14 nM. To `COc1cc(Nc2ncc3c(=O)n(-c4ccccc4C)nc(-c4ccccc4)c3n2)ccc1N1CCN(C(C)C)CC1` [Example 113, 2-{[4-(4-isopropylpiperazin-1-yl)-3-methoxyphenyl]amino}-6-(2-methylphenyl)-8-phenylpyrimido[4,5-d]pyridazin-5(6H)-one] belongs 0.4 nM; to `C=CCn1nc(-c2ccccc2)c2nc(Nc3ccc(N4CCN(C(C)C)CC4)c(OC)c3)ncc2c1=O` [Example 114, 6-allyl-2-{[4-(4-isopropylpiperazin-1-yl)-3-methoxyphenyl]amino}-8-phenylpyrimido[4,5-d]pyridazin-5(6H)-one], 3 nM; to `C=CCn1nc(-c2ccccc2)c2nc(Nc3ccc(N4CCCN(C(C)C)CC4)c(C)c3)ncc2c1=O` [Example 115, 6-allyl-2-{[4-(4-isopropyl-1,4-diazepan-1-yl)-3-methylphenyl]amino}-8-phenylpyrimido[4,5-d]pyridazin-5(6H)-one], 4 nM. To `Cc1cc(Nc2ncc3c(=O)n(-c4ccccc4C)nc(-c4ccccc4)c3n2)ccc1N1CCCN(C(C)C)CC1` [Example 116, 2-{[4-(4-isopropyl-1,4-diazepan-1-yl)-3-methylphenyl]amino}-6-(2-methylphenyl)-8-phenylpyrimido[4,5-d]pyridazin-5(6H)-one] belongs 0.4 nM; to `C=CCn1nc(-c2cccs2)c2nc(Nc3ccc4c(c3)CN(C)CC43CC3)ncc2c1=O` [Example 117, 6-allyl-2-[(2′-methyl-2′,3′-dihydro-1′H-spiro[cyclopropane-1,4′-isoquinolin]-7′-yl)amino]-8-(2-thienyl)pyrimido[4,5-d]pyridazin-5(6H)-one], 3 nM. In the case of `Cc1ccccc1-n1nc(-c2cccs2)c2nc(Nc3ccc(N4CCN(C(C)C)CC4)cc3)ncc2c1=O` [Example 118, 2-{[4-(4-isopropylpiperazin-1-yl)phenyl]amino}-6-(2-methylphenyl)-8-(2-thienyl)pyrimido[4,5-d]pyridazin-5(6H)-one], the inhibition constant (Ki) came out at 1 nM. This Ki is about 3-fold lower than that of the compound before. `Cc1cc(Nc2ncc3c(=O)n(-c4ccccc4C)nc(-c4cccs4)c3n2)ccc1N1CCN(C(C)C)CC1` [Example 119, 2-{[4-(4-isopropylpiperazin-1-yl)-3-methylphenyl]amino}-6-(2-methylphenyl)-8-(2-thienyl)pyrimido[4,5-d]pyridazin-5(6H)-one] gave a Ki of 1 nM. That is a single-digit nanomolar value. For `Cc1cc(Nc2ncc3c(=O)n(-c4ccccc4C)nc(-c4cccs4)c3n2)ccc1N1CCCN(C(C)C)CC1` [Example 120, 2-{[4-(4-isopropyl-1,4-diazepan-1-yl)-3-methylphenyl]amino}-6-(2-methylphenyl)-8-(2-thienyl)pyrimido[4,5-d]pyridazin-5(6H)-one], the Ki stood at 1 nM.

In the case of `O=C1CCCN1c1ccc(Nc2ncc3c(=O)n(-c4ccccc4Cl)nc(-c4cccs4)c3n2)cc1` [Example 121, 6-(2-chlorophenyl)-2-{[4-(2-oxopyrrolidin-1-yl)phenyl]amino}-8-(2-thienyl)pyrimido[4,5-d]pyridazin-5(6H)-one], the Ki was found to be 3 nM. To `CC(C)N1CCN(c2ccc(Nc3ncc4c(=O)n(-c5ccccc5Cl)nc(-c5cccs5)c4n3)cc2)CC1` [Example 122, 6-(2-chlorophenyl)-2-{[4-(4-isopropylpiperazin-1-yl)phenyl]amino}-8-(2-thienyl)pyrimido[4,5-d]pyridazin-5(6H)-one] belongs 0.5 nM; to `CN1Cc2cc(Nc3ncc4c(=O)n(-c5ccccc5Cl)nc(-c5cccs5)c4n3)ccc2C2(CC2)C1` [Example 123, 6-(2-chlorophenyl)-2-[(2′-methyl-2′,3′-dihydro-1′H-spiro[cyclopropane-1,4′-isoquinolin]-7′-yl)amino]-8-(2-thienyl)pyrimido[4,5-d]pyridazin-5(6H)-one], 2 nM.

Turning to `C=CCn1nc(-c2cccs2)c2nc(Nc3ccc(N4CCCC4=O)cc3)ncc2c1=O` [Example 124, 6-allyl-2-{[4-(2-oxopyrrolidin-1-yl)phenyl]amino}-8-(2-thienyl)pyrimido[4,5-d]pyridazin-5(6H)-one], the Ki was 75 nM.

For the compound `C=CCn1nc(-c2cccs2)c2nc(Nc3ccc(S(=O)(=O)N4CCOCC4)cc3)ncc2c1=O` [Example 125, 6-allyl-2-{[4-(morpholin-4-ylsulfonyl)phenyl]amino}-8-(2-thienyl)pyrimido[4,5-d]pyridazin-5(6H)-one], the Ki was more than 3140 nM.

`C=CCn1nc(-c2cccs2)c2nc(Nc3ccc(N4CCN(C(C)C)CC4)cc3)ncc2c1=O` [Example 126, 6-allyl-2-{[4-(4-isopropylpiperazin-1-yl)phenyl]amino}-8-(2-thienyl)pyrimido[4,5-d]pyridazin-5(6H)-one] showed a Ki of 6 nM. To `C=CCn1nc(-c2cccs2)c2nc(Nc3ccc(N4CCN(C(C)C)CC4)c(C)c3)ncc2c1=O` [Example 127, 6-allyl-2-{[4-(4-isopropylpiperazin-1-yl)-3-methylphenyl]amino}-8-(2-thienyl)pyrimido[4,5-d]pyridazin-5(6H)-one] belongs 4 nM.
